Laboratory results: PubChem BioAssay AID330 (DTP/NCI, 2004)
Where “and” joins values, the source holds several entries; their conditions need not be identical. Identical values can stand only once. Inconclusive results and toxic doses are left out. How the source made its calls: active means survival T/C of 150% or more; inactive means T/C below 125% in these data.

Tested on: P388 leukemia ip, CD2F1 mice, survival T/C
Experiment: NCI In Vivo Anticancer Drug Screen. Data for tumor model P388 Leukemia (intraperitoneal) in CD2F1 (CDF1) mice
Conditions: endpoint: median survival time, higher = longer survival
Method in brief: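 Mice carrying the transplanted tumor received test compound or vehicle. Survival was recorded in each group, and the value is the treated-group measurement divided by that of the vehicle-treated control group.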

[1] = dose: 15.0 mg/kg/injection, schedule: Q01DX005 (ip), vehicle: saline
[2] = dose: 30.0 mg/kg/injection, schedule: Q01DX005 (ip), vehicle: saline
[3] = dose: 50.0 mg/kg/injection, schedule: Q01DX009 (ip), vehicle: Klucel (hydroxypropylcellulose) (HPC)
[4] = dose: 25.0 mg/kg/injection, schedule: Q01DX009 (ip), vehicle: saline with Tween-80
[5] = dose: 50.0 mg/kg/injection, schedule: Q01DX009 (ip), vehicle: saline with Tween-80
[6] = dose: 100.0 mg/kg/injection, schedule: Q01DX009 (ip), vehicle: saline with Tween-80
[7] = dose: 200.0 mg/kg/injection, schedule: Q01DX009 (ip), vehicle: saline with Tween-80
[8] = dose: 400.0 mg/kg/injection, schedule: Q01DX009 (ip), vehicle: saline with Tween-80
[9] = dose: 50.0 mg/kg/injection, schedule: Q01DX009 (ip), vehicle: saline
[10] = dose: 100.0 mg/kg/injection, schedule: Q01DX009 (ip), vehicle: saline
[11] = dose: 200.0 mg/kg/injection, schedule: Q01DX009 (ip), vehicle: saline
[12] = dose: 25.0 mg/kg/injection, schedule: Q01DX005 (ip), vehicle: saline with Tween-80
[13] = dose: 50.0 mg/kg/injection, schedule: Q01DX005 (ip), vehicle: saline with Tween-80
[14] = dose: 100.0 mg/kg/injection, schedule: Q01DX005 (ip), vehicle: saline with Tween-80
[15] = dose: 200.0 mg/kg/injection, schedule: Q01DX005 (ip), vehicle: saline with Tween-80
[16] = dose: 100.0 mg/kg/injection, schedule: Q04DX002 (ip), vehicle: saline with Tween-80
[17] = dose: 200.0 mg/kg/injection, schedule: Q04DX002 (ip), vehicle: saline with Tween-80
[18] = dose: 400.0 mg/kg/injection, schedule: Q04DX002 (ip), vehicle: saline with Tween-80
[19] = dose: 12.5 mg/kg/injection, schedule: Q01DX005 (ip), vehicle: saline with Tween-80

Measured: T/C

CC(NC(=O)C(NC(=O)c1ccc[n+](Cc2ccccc2)c1)C(C)C)C(N)=O (stereo not drawn)
inactive: dose: 7.5 mg/kg/injection, schedule: Q01DX005 (ip), vehicle: saline 109 % of control | [1] 104 % of control | [2] 98 % of control

O=C1Cc2ccccc2CC1CC1Cc2ccccc2CC1=O (stereo not drawn)
inactive: [3] 87 % of control | dose: 200.0 mg/kg/injection, schedule: Q01DX009 (ip), vehicle: Klucel (hydroxypropylcellulose) (HPC) 91 % of control

CN1CCC23c4c5ccc(O)c4OC2C(O)C=CC3C1C5 (stereo not drawn)
inactive: dose: 32.0 mg/kg/injection, schedule: Q01DX009 (ip), vehicle: saline 97 % of control | dose: 64.0 mg/kg/injection, schedule: Q01DX009 (ip), vehicle: saline 106 % of control | dose: 128.0 mg/kg/injection, schedule: Q01DX009 (ip), vehicle: saline 95 % of control

N#Cc1cc2ccncc2c2ccccc12
inactive: [4] 90 % of control | [5] 93 % of control and 95 % of control | [6] 98 % of control | [7] 106 % of control and 89 % of control | [8] 114 % of control

CC(/C=C/C1(C)C(C)CCC(=O)C1C)=C\Cc1c(O)c(Cl)c(C)c(C=O)c1O (stereo not drawn)
inactive: dose: 3.12 mg/kg/injection, schedule: Q01DX009 (ip), vehicle: Klucel (hydroxypropylcellulose) (HPC) 101 % of control and 103 % of control | dose: 6.25 mg/kg/injection, schedule: Q01DX009 (ip), vehicle: Klucel (hydroxypropylcellulose) (HPC) 103 % of control and 106 % of control | dose: 12.5 mg/kg/injection, schedule: Q01DX009 (ip), vehicle: Klucel (hydroxypropylcellulose) (HPC) 106 % of control and 113 % of control

CCCCOCC(=O)OCCCC
inactive: [6] 109 % of control | dose: 100.0 mg/kg/injection, schedule: Q04DX003 (ip), vehicle: saline with Tween-80 110 % of control | [7] 118 % of control | dose: 200.0 mg/kg/injection, schedule: Q04DX003 (ip), vehicle: saline with Tween-80 115 % of control | [8] 95 % of control | dose: 400.0 mg/kg/injection, schedule: Q04DX003 (ip), vehicle: saline with Tween-80 100 % of control

O=c1oc2ccccc2n1P(=O)(N1CCOCC1)N1CCOCC1
inactive: [9] 100 % of control | [10] 98 % of control | [11] 95 % of control

COc1cc2c(cc1OC)-c1c(O)c(OC)cc3c1C(C2)N(C)CC3 (stereo not drawn)
inactive: dose: 1.12 mg/kg/injection, schedule: Q01DX009 (ip), vehicle: Klucel (hydroxypropylcellulose) (HPC) 100 % of control | dose: 1.25 mg/kg/injection, schedule: Q01DX009 (ip), vehicle: Klucel (hydroxypropylcellulose) (HPC) 103 % of control | dose: 2.25 mg/kg/injection, schedule: Q01DX009 (ip), vehicle: Klucel (hydroxypropylcellulose) (HPC) 100 % of control and 103 % of control | dose: 2.5 mg/kg/injection, schedule: Q01DX009 (ip), vehicle: Klucel (hydroxypropylcellulose) (HPC) 91 % of control | dose: 4.5 mg/kg/injection, schedule: Q01DX009 (ip), vehicle: Klucel (hydroxypropylcellulose) (HPC) 103 % of control | dose: 5.0 mg/kg/injection, schedule: Q01DX009 (ip), vehicle: Klucel (hydroxypropylcellulose) (HPC) 97 % of control | dose: 9.0 mg/kg/injection, schedule: Q01DX009 (ip), vehicle: Klucel (hydroxypropylcellulose) (HPC) 110 % of control and 95 % of control | dose: 10.0 mg/kg/injection, schedule: Q01DX009 (ip), vehicle: Klucel (hydroxypropylcellulose) (HPC) 97 % of control | dose: 18.0 mg/kg/injection, schedule: Q01DX009 (ip), vehicle: Klucel (hydroxypropylcellulose) (HPC) 93 % of control

OCc1ccc(Cl)cc1O
inactive: dose: 12.5 mg/kg/injection, schedule: Q01DX009 (ip), vehicle: distilled water + Tween-80 100 % of control | dose: 25.0 mg/kg/injection, schedule: Q01DX009 (ip), vehicle: distilled water + Tween-80 100 % of control | dose: 50.0 mg/kg/injection, schedule: Q01DX009 (ip), vehicle: distilled water + Tween-80 105 % of control | dose: 100.0 mg/kg/injection, schedule: Q01DX009 (ip), vehicle: distilled water + Tween-80 107 % of control | dose: 200.0 mg/kg/injection, schedule: Q01DX009 (ip), vehicle: distilled water + Tween-80 116 % of control

CCOc1cc(C(C)c2ccc(OC)cc2)c(OCC)cc1OC (stereo not drawn)
inactive: dose: 60.0 mg/kg/injection, schedule: Q01DX005 (ip), vehicle: saline with Tween-80 106 % of control | dose: 120.0 mg/kg/injection, schedule: Q01DX005 (ip), vehicle: saline with Tween-80 100 % of control | dose: 240.0 mg/kg/injection, schedule: Q01DX005 (ip), vehicle: saline with Tween-80 103 % of control

O=C1C(=O)C(CN2CCOCC2)=C(N2CCOCC2)C(N2CCOCC2)=C1CN1CCOCC1
inactive: [12] 100 % of control | [13] 100 % of control | [14] 98 % of control | [15] 100 % of control

COC(=O)C1(c2ccccc2)N=C1N(C)C (stereo not drawn)
inactive: [16] 94 % of control | [17] 94 % of control | [18] 102 % of control

NNC(=O)CNc1ccccc1F
inactive: [1] 97 % of control | [2] 95 % of control | dose: 60.0 mg/kg/injection, schedule: Q01DX005 (ip), vehicle: saline 91 % of control and 97 % of control | dose: 120.0 mg/kg/injection, schedule: Q01DX005 (ip), vehicle: saline 97 % of control

NC(=O)NC(=O)CCl
inactive: dose: 25.0 mg/kg/injection, schedule: Q01DX009 (ip), vehicle: Klucel (hydroxypropylcellulose) (HPC) 105 % of control and 94 % of control | [3] 103 % of control and 122 % of control and 94 % of control

Cc1cc(=O)[nH][nH]1
inactive: [16] 97 % of control | [17] 100 % of control | [18] 94 % of control

CCCCCC(CN(C)C)C(=O)/C=C/c1ccc2c(c1)OCO2 (stereo not drawn)
inactive: [5] 123 % of control | [6] 109 % of control

COC1=C(C)C(=O)c2c(c(COC(N)=O)c3n2CC2C3N2C)C1=O (stereo not drawn)
inactive: dose: 6.25 mg/kg/injection, schedule: Q04DX003 (ip), vehicle: saline with Tween-80 100 % of control | dose: 12.5 mg/kg/injection, schedule: Q04DX003 (ip), vehicle: saline with Tween-80 90 % of control

CSCCC(NC(C)=O)C(C)=O (stereo not drawn)
inactive: [9] 110 % of control | [10] 109 % of control | [11] 105 % of control

CN1/C(=C/C=C/C(I)=C/C=C/C2=[N+](C)c3ccccc3C2(C)C)C(C)(C)c2ccccc21
inactive: dose: 3.13 mg/kg/injection, schedule: Q01DX009 (ip), vehicle: saline with Tween-80 121 % of control | dose: 6.25 mg/kg/injection, schedule: Q01DX009 (ip), vehicle: saline with Tween-80 123 % of control | dose: 12.5 mg/kg/injection, schedule: Q01DX009 (ip), vehicle: saline with Tween-80 120 % of control | [4] 124 % of control

Cc1cc(C)c2c(=O)n(-c3ccc(Br)cc3)c(=S)n(-c3ccc(Br)cc3)c2n1
inactive: [19] 99 % of control | [12] 97 % of control | [13] 87 % of control and 95 % of control

Cc1ccc(S(=O)(=O)N/N=C/c2ccc(Cl)cc2)cc1
inactive: [19] 102 % of control | [12] 104 % of control and 108 % of control | [13] 100 % of control and 106 % of control and 107 % of control | [15] 121 % of control

O=S(=O)(/C=C\c1ccccc1)/C=C/c1ccc(F)cc1
inactive: [13] 111 % of control | [14] 97 % of control | [15] 94 % of control

CCSCCC1(CCC(C)C)C(=O)NC(=Nc2ccccc2)NC1=O (stereo not drawn)
inactive: [5] 99 % of control | [6] 95 % of control | [7] 99 % of control | [8] 95 % of control
